The record followed here is patent publication US20090181963A1, “3H-[1,2,3]TRIAZOLO[4,5-D]PYRIMIDINE COMPOUNDS, THEIR USE AS mTOR KINASE AND PI3 KINASE INHIBITORS, AND THEIR [sequence]” (Wyeth, priority 2008, published 2009).

One assay addresses PI3 Kinase α (Homo sapiens, UniProt P42336). The assay is described as follows: Fluorescence polarization assay for PI3K (PI3 Kinase α). Type of assay: biochemical. The settings on record: diC8-PI(4,5)P2 substrate, 25 μM ATP, one hour at 25° C. For orientation: Fluorescence polarisation rises when a labelled molecule tumbles more slowly, as on binding a larger partner.
The next assay deals with PI3 Kinase γ (Homo sapiens, UniProt P48736). Nature of the assay: Fluorescence polarization assay for PI3K (PI3 Kinase γ). The settings on record: diC8-PI(4,5)P2 substrate, 25 μM ATP, one hour at 25° C. It counts as biochemical.
Chain of PI3 Kinase γ (P48736 whole entry): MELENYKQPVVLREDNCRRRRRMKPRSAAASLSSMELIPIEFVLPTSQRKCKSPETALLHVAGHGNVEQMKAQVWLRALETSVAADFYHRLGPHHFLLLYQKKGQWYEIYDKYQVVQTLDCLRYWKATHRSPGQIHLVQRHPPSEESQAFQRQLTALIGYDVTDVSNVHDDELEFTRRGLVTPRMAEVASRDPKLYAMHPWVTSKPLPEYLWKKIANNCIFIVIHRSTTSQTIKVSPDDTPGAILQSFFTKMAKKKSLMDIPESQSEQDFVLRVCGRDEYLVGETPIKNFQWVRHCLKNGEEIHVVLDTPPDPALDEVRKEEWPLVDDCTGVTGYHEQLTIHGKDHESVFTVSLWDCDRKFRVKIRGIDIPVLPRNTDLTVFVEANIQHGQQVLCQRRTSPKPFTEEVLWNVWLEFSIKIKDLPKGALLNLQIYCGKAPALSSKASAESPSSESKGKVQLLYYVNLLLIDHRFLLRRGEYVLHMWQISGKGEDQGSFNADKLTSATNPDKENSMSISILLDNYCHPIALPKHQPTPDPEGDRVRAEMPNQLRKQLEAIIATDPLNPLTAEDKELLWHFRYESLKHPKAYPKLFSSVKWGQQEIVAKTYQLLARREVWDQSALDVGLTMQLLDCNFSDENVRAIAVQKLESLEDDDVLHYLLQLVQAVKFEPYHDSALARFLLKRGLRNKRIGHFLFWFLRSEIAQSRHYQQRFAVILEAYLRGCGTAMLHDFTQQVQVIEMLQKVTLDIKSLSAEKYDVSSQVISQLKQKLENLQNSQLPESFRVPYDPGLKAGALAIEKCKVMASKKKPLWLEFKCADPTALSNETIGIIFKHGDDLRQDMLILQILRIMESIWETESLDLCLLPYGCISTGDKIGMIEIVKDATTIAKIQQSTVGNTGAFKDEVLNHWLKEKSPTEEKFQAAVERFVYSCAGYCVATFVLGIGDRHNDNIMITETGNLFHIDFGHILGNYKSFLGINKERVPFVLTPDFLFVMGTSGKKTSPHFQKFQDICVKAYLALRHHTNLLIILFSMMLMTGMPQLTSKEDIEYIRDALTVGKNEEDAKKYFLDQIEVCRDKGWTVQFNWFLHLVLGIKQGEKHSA

Where only a bound is given, the exact number is not on record here.

Chain of PI3 Kinase α (P42336 whole entry): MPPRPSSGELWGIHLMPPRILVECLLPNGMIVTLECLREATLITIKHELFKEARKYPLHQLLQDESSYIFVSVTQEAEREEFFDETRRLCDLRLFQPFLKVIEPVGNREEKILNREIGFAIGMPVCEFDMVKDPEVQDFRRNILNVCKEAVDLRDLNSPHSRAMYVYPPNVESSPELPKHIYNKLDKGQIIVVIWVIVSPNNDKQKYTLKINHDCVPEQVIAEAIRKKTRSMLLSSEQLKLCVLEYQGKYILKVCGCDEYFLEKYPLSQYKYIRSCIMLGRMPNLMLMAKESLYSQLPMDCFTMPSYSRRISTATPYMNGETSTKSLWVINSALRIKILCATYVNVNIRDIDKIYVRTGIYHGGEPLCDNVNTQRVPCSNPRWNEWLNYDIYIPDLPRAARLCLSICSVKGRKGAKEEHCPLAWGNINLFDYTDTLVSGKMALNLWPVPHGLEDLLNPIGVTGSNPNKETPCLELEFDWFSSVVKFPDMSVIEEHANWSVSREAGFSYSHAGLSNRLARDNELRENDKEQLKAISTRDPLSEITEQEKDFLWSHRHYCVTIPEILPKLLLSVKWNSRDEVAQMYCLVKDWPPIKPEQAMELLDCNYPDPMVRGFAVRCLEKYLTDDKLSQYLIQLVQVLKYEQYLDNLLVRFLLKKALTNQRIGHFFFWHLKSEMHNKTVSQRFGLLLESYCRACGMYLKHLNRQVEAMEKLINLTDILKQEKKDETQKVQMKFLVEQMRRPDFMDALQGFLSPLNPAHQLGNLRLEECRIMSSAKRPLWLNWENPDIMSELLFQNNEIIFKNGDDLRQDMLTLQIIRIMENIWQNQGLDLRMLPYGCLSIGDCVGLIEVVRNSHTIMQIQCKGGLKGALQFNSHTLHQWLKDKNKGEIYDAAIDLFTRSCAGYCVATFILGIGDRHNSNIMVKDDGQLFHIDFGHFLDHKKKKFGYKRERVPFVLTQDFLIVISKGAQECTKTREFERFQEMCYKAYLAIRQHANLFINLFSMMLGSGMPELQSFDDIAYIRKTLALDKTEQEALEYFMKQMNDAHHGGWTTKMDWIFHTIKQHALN
Chain of PI3 Kinase α (P27986 whole entry partner): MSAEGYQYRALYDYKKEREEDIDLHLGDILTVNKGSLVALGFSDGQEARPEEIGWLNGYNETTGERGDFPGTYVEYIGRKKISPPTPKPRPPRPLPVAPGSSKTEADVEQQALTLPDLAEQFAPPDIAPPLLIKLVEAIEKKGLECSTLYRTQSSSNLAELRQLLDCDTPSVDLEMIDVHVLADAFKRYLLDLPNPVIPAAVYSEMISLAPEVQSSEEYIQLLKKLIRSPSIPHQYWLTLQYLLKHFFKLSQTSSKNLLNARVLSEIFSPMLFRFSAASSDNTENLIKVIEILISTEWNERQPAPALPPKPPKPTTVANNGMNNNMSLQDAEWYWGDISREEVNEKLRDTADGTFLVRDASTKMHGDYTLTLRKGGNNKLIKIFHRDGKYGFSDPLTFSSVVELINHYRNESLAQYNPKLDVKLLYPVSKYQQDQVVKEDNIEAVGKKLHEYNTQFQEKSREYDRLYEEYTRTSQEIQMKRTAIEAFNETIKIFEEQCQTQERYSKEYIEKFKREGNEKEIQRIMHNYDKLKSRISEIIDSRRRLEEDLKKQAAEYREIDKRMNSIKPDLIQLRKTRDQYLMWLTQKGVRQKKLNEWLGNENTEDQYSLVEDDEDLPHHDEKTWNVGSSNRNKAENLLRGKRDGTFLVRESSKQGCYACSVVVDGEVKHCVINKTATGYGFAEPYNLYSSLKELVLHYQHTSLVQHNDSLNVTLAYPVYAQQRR

For `CCN1CCCC1Cn1nnc2c(N3CCOCC3)nc(-c3cccc(O)c3)nc21` (stereo not drawn) [Example 172, 3-{3-[(1-ethylpyrrolidin-2-yl)methyl]-7-morpholin-4-yl-3H-[1,2,3]triazolo[4,5-d]pyrimidin-5-yl}phenol], the IC50 (in general, the concentration that inhibits the measured activity by half) on PI3 Kinase α was determined as 204 nM; at PI3 Kinase γ it was 1230 nM.
With `OCc1cncc(-c2nc(N3CCOCC3)c3nnn(C4CCN(Cc5ccccc5)CC4)c3n2)c1` [Example 173, {5-[3-(1-benzylpiperidin-4-yl)-7-morpholin-4-yl-3H-[1,2,3]triazolo[4,5-d]pyrimidin-5-yl]pyridin-3-yl}methanol], the IC50 against PI3 Kinase α came out at 570 nM; against PI3 Kinase γ, 1850 nM.
On the same counts, the results for `OCc1cncc(-c2nc(N3CCOCC3)c3nnn(C4CCNCC4)c3n2)c1` [Example 174, [5-(7-morpholin-4-yl-3-piperidin-4-yl-3H-[1,2,3]triazolo[4,5-d]pyrimidin-5-yl)pyridin-3-yl]methanol] are 285 nM and 956 nM.
In the same order, the values of `CCn1nnc2c(N3CCOCC3)nc(-c3ccc(N)c(OC)c3)nc21` [Example 175, 4-(3-ethyl-7-morpholin-4-yl-3H-[1,2,3]triazolo[4,5-d]pyrimidin-5-yl)-2-methoxyaniline] are 1410 nM and 9110 nM.
In the same order, the values of `OCc1cccc(-c2nc(N3CCOCC3)c3nnn(C4CCNCC4)c3n2)c1` [Example 176, [3-(7-morpholin-4-yl-3-piperidin-4-yl-3H-[1,2,3]triazolo[4,5-d]pyrimidin-5-yl)phenyl]methanol] are 23.7 nM and 164 nM.
As for `OCc1cccc(-c2nc(N3CCOCC3)c3nnn(C4CCN(Cc5ccccc5)CC4)c3n2)c1` [Example 177, {3-[3-(1-benzylpiperidin-4-yl)-7-morpholin-4-yl-3H-[1,2,3]triazolo[4,5-d]pyrimidin-5-yl]phenyl}methanol], the IC50 was found to be 83.5 nM against PI3 Kinase α and 435 nM at PI3 Kinase γ.
Take `COC(Cn1nnc2c(N3CCOCC3)nc(-c3ccc(N)cc3)nc21)OC` [Example 178, 4-[3-(2,2-dimethoxyethyl)-7-morpholin-4-yl-3H-[1,2,3]triazolo[4,5-d]pyrimidin-5-yl]aniline]: the IC50 on PI3 Kinase α was 1340 nM; at PI3 Kinase γ, above 10000 nM.
Regarding `COC(Cn1nnc2c(N3CCOCC3)nc(-c3ccc(NC(=O)Nc4ccc(C)cc4)cc3)nc21)OC` [Example 179, 1-{4-[3-(2,2-dimethoxyethyl)-7-morpholin-4-yl-3H-[1,2,3]triazolo[4,5-d]pyrimidin-5-yl]phenyl}-3-(4-methylphenyl)urea], the figures for the IC50 against PI3 Kinase α and at PI3 Kinase γ were 142 nM and 342 nM, respectively.
On the same counts, the results for `COC(Cn1nnc2c(N3CCOCC3)nc(-c3ccc(NC(=O)Nc4ccc(F)cc4)cc3)nc21)OC` [Example 180, 1-{4-[3-(2,2-dimethoxyethyl)-7-morpholin-4-yl-3H-[1,2,3]triazolo[4,5-d]pyrimidin-5-yl]phenyl}-3-(4-fluorophenyl)urea] are 67.5 nM and 152 nM.
In the same order, the values of `COC(Cn1nnc2c(N3CCOCC3)nc(-c3ccc(NC(=O)Nc4cccnc4)cc3)nc21)OC` [Example 181, 1-{4-[3-(2,2-dimethoxyethyl)-7-morpholin-4-yl-3H-[1,2,3]triazolo[4,5-d]pyrimidin-5-yl]phenyl}-3-pyridin-3-ylurea] are 58.5 nM and 186 nM.
In the same order, the values of `COC(Cn1nnc2c(N3CCOCC3)nc(-c3ccc(NC(=O)Nc4ccc(C(N)=O)cc4)cc3)nc21)OC` [Example 182, 4-[({4-[3-(2,2-dimethoxyethyl)-7-morpholin-4-yl-3H-[1,2,3]triazolo[4,5-d]pyrimidin-5-yl]phenyl}carbamoyl)amino]benzamide] are 4 nM and 27 nM.
Turning to `O=C(Nc1ccc(-c2nc(N3CCOCC3)c3nnn(CCO)c3n2)cc1)Nc1cccnc1` [Example 184, 1-{4-[3-(2-hydroxyethyl)-7-morpholin-4-yl-3H-[1,2,3]triazolo[4,5-d]pyrimidin-5-yl]phenyl}-3-pyridin-3-ylurea], the IC50 against PI3 Kinase α was found to be 20 nM; at PI3 Kinase γ it was 47 nM.
